In test [1] the test system is unidentified influenza virus. The experiment in a line: Potency to inhibit influenza virus (X-31) relative to alpha-C-allyl sialic acid. Type of test: functional.
Test [2] concerns unidentified influenza virus. As to the kind of experiment: The compound was evaluated for the inhibition of influenza virus (X-31). Type of test: functional, organism-based.

Consider `CO[C@]1(C(=O)O)C[C@H](O)[C@@H](NC(C)=O)[C@H]([C@@H](O)[C@H](O)CO)O1`, for which the Relative potency in test [1] came to 2.5. The molecule also displayed a 50% inhibitory concentration (IC50) in test [2] of 4 mM.
The like results for `C=CC[C@]1(C(=O)O)C[C@H](O)[C@@H](NC(C)=O)[C@H](C(O)C(O)CO)O1` (stereo partly specified) were, in that order, below 0.02 and above 50 mM.
The corresponding values for `C=CC[C@@]1(C(=O)O)C[C@H](O)[C@@H](NC(C)=O)[C@H](C(O)C(O)CO)O1` (stereo partly specified) are 1 and 10 mM.

One may read the IC50 as the concentration at which inhibition is half-maximal. High values mean weaker potency, low ones greater potency.

The values above are taken from ChEMBL document CHEMBL1126096, “Carbohydrate materials bearing neuraminidase-resistant C-glycosides of sialic acid strongly inhibit the in vitro infectivity of influenza virus” (J Med Chem, 1992).
